The values that follow come from ChEMBL document CHEMBL1201862, “PubChem BioAssay data set” (2004).

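In this assay, cells in 96-well plates receive the compound at five concentrations for 48 hours. Endpoints are linearly interpolated between the surrounding concentrations. GI50 marks 50% less growth.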 Active and inactive are the calls of the source. Cut-off read from the data, not from the text of the source: active = GI50 up to about 1.1 µM and inactive = higher.

Assay in all cases: inhibition of tumour cell growth, NCI panel, 48 h
Experiment [1] concerns T47D.
Experiment [2] has as its system MDA-MB-435.
The subject of experiment [3] is HT-29.
The test system of experiment [4] is DU-145.
Experiment [5] has as its system EKVX.
Experiment [6] deals with SNB-19.
Experiment [7] deals with ACHN.
Experiment [8] relates to NCI-H226.
Experiment [9] deals with OVCAR-5.
The subject of experiment [10] is NCI/ADR-RES.
For experiment [11], the system named is SR.
Experiment [12] has as its system COLO 205.
For experiment [13], the system named is SN12C.
For experiment [14], the system named is BT-549.
Experiment [15] has as its system NCI-H460.
For experiment [16], the system named is MDA-MB-231.
Experiment [17] has as its system UO-31.
In experiment [18] the test system is MOLT-4.
In experiment [19] the test system is OVCAR-3.
The subject of experiment [20] is SK-OV-3.

As to `O=C1CC(C(OCc2ccccc2)C(OCc2ccccc2)C(COCc2ccccc2)OCc2ccccc2)CC(=O)N1` (stereo not drawn), the GI50 was 26.1 µM (inactive) in [1]; > 75 µM (inactive) in experiment [2]; > 75 µM (inactive) in [3]; > 75 µM (inactive) in experiment [4]; > 100 µM (inactive) in experiment [5]; > 75 µM (inactive) in [6]. Further, the GI50 in experiment [7] is > 75 µM (inactive); in experiment [8], > 100 µM (inactive); in experiment [9], > 75 µM (inactive); in [10] it was > 75 µM (inactive); in experiment [11], > 75 µM (inactive); in experiment [12] it was > 100 µM (inactive). Also, the GI50 in experiment [13] was > 75 µM (inactive); in experiment [14], > 100 µM (inactive); in experiment [15], > 75 µM (inactive); in experiment [16] it was 71.4 µM (inactive).

In the case of `CCOC(=O)Nc1ccc(S(=O)(=O)Nc2ccc(Br)cc2)cc1`, the GI50 was 31.5 µM (inactive) in experiment [1]; 34.8 µM (inactive) in experiment [17]; 43.5 µM (inactive) in [2]; 33.2 µM (inactive) in experiment [3]; 65.5 µM (inactive) in [4]; 29.2 µM (inactive) in experiment [5]. The GI50 in experiment [6] is 73.5 µM (inactive); in experiment [7], 30.1 µM (inactive); in experiment [18] it was 26.9 µM (inactive); in experiment [9], 58.1 µM (inactive); in experiment [10], 34.4 µM (inactive); in [11], 18.2 µM (inactive). Further, the GI50 in experiment [19] is 36.3 µM (inactive); in experiment [12], 14.6 µM (inactive); in experiment [20], 25.9 µM (inactive); in experiment [13] it was 59.8 µM (inactive); in [14] it was 35.1 µM (inactive); in experiment [15], 23.2 µM (inactive). Moreover, in experiment [16], the GI50 is 29.7 µM (inactive).

`Nc1ccc(-c2nc3cc(F)ccc3s2)cc1CO`: the GI50 in [1] is 0.0116 µM (active); in [17], 18.1 µM (inactive); in [2] it was > 100 µM (inactive); in [3] it was > 100 µM (inactive); in experiment [4] it was > 78.9 µM (inactive); in [5] it was 17.8 µM (inactive). The GI50 in experiment [6] was 27.1 µM (inactive); in experiment [7] it was 25.3 µM (inactive); in [8], 0.0219 µM (active); in experiment [18], > 100 µM (inactive); in experiment [9] it was 60.8 µM (inactive); in experiment [10], 53.6 µM (inactive). Also, the GI50 in [19] was 36.2 µM (inactive); in experiment [12], > 100 µM (inactive); in experiment [20] it was 16.7 µM (inactive); in experiment [13] it was 32.7 µM (inactive); in experiment [14], 21.2 µM (inactive); in [15] it was 3.04 µM (inactive). The GI50 in [16] is 22.9 µM (inactive).

For the compound `CCCCSC1=N/C(=C\c2ccccc2O)C(Cl)=N1`, the GI50 in experiment [1], in experiment [17], in experiment [2], in experiment [3], in experiment [4] and in experiment [5] was > 100 µM (inactive) each time. The GI50 in experiment [6], in [7], in experiment [8], in experiment [18], in [9] and in experiment [10] was > 100 µM (inactive) in each case. The GI50 in experiment [19], in [12], in experiment [20], in [13], in experiment [14] and in experiment [15] was > 100 µM (inactive) throughout. Moreover, the GI50 in experiment [16] was > 100 µM (inactive).
